According to patent US10647679B2, “N-methyl-D-aspartate receptor (NMDAR) potentiators, pharmaceutical compositions, and uses related thereto” (Emory University, priority 2015, dated 2020):
Like-named read-outs stand apart in the source and are kept apart here. Blank lines part the entries; values can stand above or below the molecule they belong to.

Columns and labels:
Type in all cases: cell-based
[1] = molecular target: T1, recombinant rat GluN1/GluN2D (Rattus norvegicus, UniProt Q62645); assay: Two-electrode voltage-clamp (TEVC) recordings in Xenopus laevis oocytes, GluN1/GluN2D; settings: for I30 μM/Icontrol (mean ± SEM, %) GluN2D: 30 μM compound, Tables 5-7
T1 construct: expressed in transfected cells; host or cells: Xenopus laevis oocytes (Ecocyte) injected with in vitro transcribed cRNA
Description: (§1) Data are from between 3-26 oocytes from 2-5 frogs for each compound and receptor tested.
(§2) Two-electrode voltage-clamp recordings were performed in Xenopus laevis oocytes (Ecocyte) expressing recombinant rat GluN1/GluN2A, GluN1/GluN2B, GluN1/GluN2C, GluN1/GluN2D. cRNA was transcribed in vitro (Ambion), diluted with nuclease free water, and injected at a ratio of 1:2 GluN1:GluN2 (5-10 ng total cRNA). The oocytes were kept in Barth's solution comprised of (in mM) 88 NaCl, 5 Tris-HCl, 2.4 NaHCO3, 1 KCl, 0.84 MgSO4, 0.41 CaCl2, and 0.33 Ca(NO3)2 at pH 7.4 at 15-17° C. for two to five days before experiments. Oocytes were placed into a perfusion chamber and continually washed with recording solution containing (in mM) 90 NaCl, 1.0 KCl, 0.5 BaCl2, 0.005 EDTA, and 10 HEPES at pH 7.4 (23° C.). Voltage clamp recordings were conducted at a holding potential of −40 mV. All compounds were made as 20 mM stock solutions in DMSO and dissolved to reach the final concentration in recording solution. Final DMSO content was 0.05-0.5% (vol/vol). Some oocytes expressing GluN1/GluN2A were pretreated with […] BAPTA-AM for 10 minutes or injected with […] of 2 mM K-BAPTA to prevent gradual run-up of the current response.

[2] = molecular target: T2, recombinant rat GluN1/GluN2C (Rattus norvegicus, UniProt P35439+Q00961); assay: Two-electrode voltage-clamp (TEVC) recordings in Xenopus laevis oocytes, GluN1/GluN2C
T2 construct: expressed in transfected cells; host or cells: Xenopus laevis oocytes (Ecocyte) injected with in vitro transcribed cRNA
T2 sequence (Q00961 20-1237, other chains not shown): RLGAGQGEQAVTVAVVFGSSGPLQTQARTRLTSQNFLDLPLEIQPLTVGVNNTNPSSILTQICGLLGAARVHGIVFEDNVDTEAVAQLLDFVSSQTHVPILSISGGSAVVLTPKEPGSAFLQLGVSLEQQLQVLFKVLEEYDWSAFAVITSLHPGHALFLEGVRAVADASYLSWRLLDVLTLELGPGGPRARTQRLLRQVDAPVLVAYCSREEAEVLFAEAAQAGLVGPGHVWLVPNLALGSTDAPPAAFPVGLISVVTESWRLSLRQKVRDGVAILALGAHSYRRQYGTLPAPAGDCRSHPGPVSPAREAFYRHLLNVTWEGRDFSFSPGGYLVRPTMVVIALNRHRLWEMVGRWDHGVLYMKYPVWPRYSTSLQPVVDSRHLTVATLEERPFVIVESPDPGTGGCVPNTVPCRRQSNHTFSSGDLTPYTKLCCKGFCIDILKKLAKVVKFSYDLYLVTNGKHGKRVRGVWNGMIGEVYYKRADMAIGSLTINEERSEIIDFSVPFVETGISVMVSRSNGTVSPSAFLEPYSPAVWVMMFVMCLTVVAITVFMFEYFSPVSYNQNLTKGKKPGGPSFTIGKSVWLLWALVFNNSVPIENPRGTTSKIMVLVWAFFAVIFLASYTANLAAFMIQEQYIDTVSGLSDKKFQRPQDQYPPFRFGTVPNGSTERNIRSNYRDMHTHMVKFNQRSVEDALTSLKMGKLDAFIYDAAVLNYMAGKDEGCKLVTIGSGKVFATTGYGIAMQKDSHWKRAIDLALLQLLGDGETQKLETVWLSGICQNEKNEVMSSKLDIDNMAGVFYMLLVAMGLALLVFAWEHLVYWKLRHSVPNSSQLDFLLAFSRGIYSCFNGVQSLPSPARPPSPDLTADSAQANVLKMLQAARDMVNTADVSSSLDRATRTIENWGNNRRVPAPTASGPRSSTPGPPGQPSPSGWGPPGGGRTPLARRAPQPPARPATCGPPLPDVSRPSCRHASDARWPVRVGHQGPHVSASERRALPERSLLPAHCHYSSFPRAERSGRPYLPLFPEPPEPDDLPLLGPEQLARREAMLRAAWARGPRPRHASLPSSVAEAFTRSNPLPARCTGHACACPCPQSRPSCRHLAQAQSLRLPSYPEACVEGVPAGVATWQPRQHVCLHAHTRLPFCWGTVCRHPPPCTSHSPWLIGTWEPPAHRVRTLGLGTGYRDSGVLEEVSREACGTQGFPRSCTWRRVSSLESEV
Description: as §1, §2

[3] = molecular target: T3, recombinant rat GluN1/GluN2C (Rattus norvegicus, UniProt Q00961); assay: as above; settings: for I30 μM/Icontrol (mean ± SEM, %) GluN2C: 30 μM compound, Tables 5-7
T3 construct: expressed in transfected cells; host or cells: Xenopus laevis oocytes (Ecocyte) injected with in vitro transcribed cRNA
T3 sequence (Q00961 20-1237, other chains not shown): as above
Description: as §1, §2

[4] = molecular target: T4, recombinant rat GluN1/GluN2B (Rattus norvegicus, UniProt Q00960); assay: Two-electrode voltage-clamp (TEVC) recordings in Xenopus laevis oocytes, GluN1/GluN2B; settings: for I30 μM/Icontrol (mean ± SEM, %) GluN2B: 30 μM compound, Tables 5-7
T4 construct: expressed in transfected cells; host or cells: Xenopus laevis oocytes (Ecocyte) injected with in vitro transcribed cRNA
T4 sequence (Q00960 27-1482, other chains not shown): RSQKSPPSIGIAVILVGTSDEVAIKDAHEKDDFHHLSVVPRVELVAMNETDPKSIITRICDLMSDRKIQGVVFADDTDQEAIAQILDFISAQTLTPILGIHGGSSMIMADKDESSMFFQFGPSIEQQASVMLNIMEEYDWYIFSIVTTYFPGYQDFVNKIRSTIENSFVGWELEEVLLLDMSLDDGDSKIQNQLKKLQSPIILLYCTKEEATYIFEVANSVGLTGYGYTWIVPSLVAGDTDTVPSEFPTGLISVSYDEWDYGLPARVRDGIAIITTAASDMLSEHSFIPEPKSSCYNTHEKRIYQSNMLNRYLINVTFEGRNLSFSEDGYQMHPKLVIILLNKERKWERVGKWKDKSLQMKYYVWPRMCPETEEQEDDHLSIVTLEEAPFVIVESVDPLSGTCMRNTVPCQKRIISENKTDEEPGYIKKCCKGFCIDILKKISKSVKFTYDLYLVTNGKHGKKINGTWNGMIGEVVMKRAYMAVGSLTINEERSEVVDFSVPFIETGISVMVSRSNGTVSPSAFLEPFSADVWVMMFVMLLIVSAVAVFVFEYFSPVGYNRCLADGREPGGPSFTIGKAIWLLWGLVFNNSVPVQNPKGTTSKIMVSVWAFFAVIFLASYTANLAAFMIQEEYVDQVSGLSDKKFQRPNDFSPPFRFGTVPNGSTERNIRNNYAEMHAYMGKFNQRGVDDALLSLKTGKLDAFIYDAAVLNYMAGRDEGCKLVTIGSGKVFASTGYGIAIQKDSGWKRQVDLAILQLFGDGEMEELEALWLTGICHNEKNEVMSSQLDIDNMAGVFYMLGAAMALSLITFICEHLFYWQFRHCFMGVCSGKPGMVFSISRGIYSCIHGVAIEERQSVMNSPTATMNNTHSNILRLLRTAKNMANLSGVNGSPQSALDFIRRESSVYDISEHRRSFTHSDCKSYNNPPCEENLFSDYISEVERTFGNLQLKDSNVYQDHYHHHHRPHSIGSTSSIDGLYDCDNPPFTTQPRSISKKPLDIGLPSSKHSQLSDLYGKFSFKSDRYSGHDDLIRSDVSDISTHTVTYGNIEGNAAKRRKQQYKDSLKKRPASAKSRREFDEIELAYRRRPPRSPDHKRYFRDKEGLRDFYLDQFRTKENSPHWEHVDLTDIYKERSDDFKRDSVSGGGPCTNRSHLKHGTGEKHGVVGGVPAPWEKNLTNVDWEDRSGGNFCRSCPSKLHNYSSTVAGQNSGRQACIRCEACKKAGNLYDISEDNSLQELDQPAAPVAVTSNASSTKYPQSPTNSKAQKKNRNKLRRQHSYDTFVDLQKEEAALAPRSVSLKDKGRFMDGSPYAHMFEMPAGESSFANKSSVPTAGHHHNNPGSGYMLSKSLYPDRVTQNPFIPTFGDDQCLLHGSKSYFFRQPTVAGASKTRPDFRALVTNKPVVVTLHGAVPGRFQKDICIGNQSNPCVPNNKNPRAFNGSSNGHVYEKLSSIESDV
Description: as §1, §2

[5] = molecular target: T5, recombinant rat GluN1/GluN2B (Rattus norvegicus, UniProt P35439+Q00960); assay: as above; settings: for EC50: fitted when potentiation at 30 μM exceeded 120%, Tables 3, 5-7, read-out: EC50 (max.) (μM %) GluN2B: fitted EC50
T5 construct: expressed in transfected cells; host or cells: Xenopus laevis oocytes (Ecocyte) injected with in vitro transcribed cRNA
T5 sequence (Q00960 27-1482, other chains not shown): as above
Description: as §1, §2

[6] = maximum potentiation, response without modulator = 100%, read-out: GluN2B EC50 (μM)/Max %: Max %
[7] = percentage of the initial glutamate (100 μM) and glycine (30 μM) current, read-out: EC50 (max.) (μM %) GluN2B: fitted maximum response
[8] = maximum potentiation, response without modulator = 100%
[9] = percentage of the initial glutamate (100 μM) and glycine (30 μM) current

EC50 & Max Effect: 2D Max (%) ([1]; Tables 11-13): 188%
Emax ([2]; Tables 11-13, read-out: EC50 & Max Effect: 2C Max (%)): 145%
SMILES: COc1ccc(OCC2c3cc(OC)c(OC)cc3CCN2C(=O)c2cccc(Br)c2)cc1 (stereo not shown) [compound 1391]

GluN2C response % at 10 μM ([3]; at 10 μM, Table 9): 142% at 10 μM
SMILES: CCOc1ccc(OCC2c3ccc(OC(C)C)cc3CCN2S(=O)(=O)c2cccc(Cl)c2)cc1 (stereo not shown) [1180-199]

EC50 ([1]; untitled tables after drawing 25 and drawing 36, read-out: EC50 (μM) GluN2D): 23 µM
EC50 ([3]; untitled tables after drawing 25 and drawing 36, read-out: EC50 (μM) GluN2C): 15 µM
GluN2B response % at 30 µM [4]: 99% at 30
SMILES: COc1ccc(OCC2c3ccc(OC)cc3CCN2C(=O)C=C(C)C(F)(F)F)cc1 (stereo not shown) [1180-255]

Emax ([2]; maximum potentiation, response without modulator = 100%, read-out: GluN2C EC50 (μM)/Max %: Max %): 132%
Emax [5, 6]: 138%
SMILES: CCOc1ccc(OCC2c3ccc(OC(C)C)cc3CCN2C(=O)c2cccc(Br)c2)cc1 (stereo not shown) [1180-86]

I30 μM/Icontrol (mean ± SEM, %) GluN2D [1]: 87%
I30 μM/Icontrol (mean ± SEM, %) GluN2C [3]: 87%
I30 μM/Icontrol (mean ± SEM, %) GluN2B [4]: 95%
SMILES: CCOc1ccc(OC[C@@H]2c3ccc(OC(C)C)cc3CCN2C(=S)c2cccc(C(F)(F)F)c2)cc1 [(S)-(−)-1180-168]

GluN2D response % at 30 µM [1]: 131% at 30
GluN2C response % at 30 µM [3]: 114% at 30
GluN2B response % at 30 µM [4]: 88% at 30
SMILES: COc1ccc(OCC2c3ccc(OC)cc3CCN2C(=O)c2cnc(Cl)s2)cc1 (stereo not shown) [1180-241]

GluN2D response % at 30 µM [1]: 222% at 30
GluN2C response % at 30 µM [3]: 184% at 30
GluN2B response % at 30 µM [4]: 103% at 30
SMILES: CC=CCC(=O)N1CCc2cc(OC)ccc2C1COc1ccc(OC)cc1 (stereo not shown) [1180-235]

SMILES: COc1ccc(OCC2c3cc(OC)c(OC)cc3CCN2C(=S)c2cccc(Cl)c2)cc1 (racemic) [1180-161]
EC50 & Max Effect: 2D (μM) [1]: Inactive
EC50 & Max Effect: 2C (μM) [3]: Inactive

SMILES: CCOc1ccc(OCC2c3ccc(OC4CCCC4)cc3CCN2C(=S)c2cccc(F)c2)cc1 (racemic) [1180-162]
EC50 & Max Effect: 2D Max (%) [1]: 295%
EC50 ([1]; read-out: EC50 & Max Effect: 2D): 0.39 µM
EC50 & Max Effect: 2C Max (%) [3]: 218%
EC50 ([3]; read-out: EC50 & Max Effect: 2C): 0.26 µM

I30 μM/Icontrol (mean ± SEM, %) GluN2C [3]: 103%
I30 μM/Icontrol (mean ± SEM, %) GluN2B [4]: 151%
EC50 [5]: 2.8 µM
Emax [5, 6]: 152%
Emax [5, 7]: 152%
SMILES: CCOc1ccc(OCC2c3ccc(OC(C)C)cc3CCN2C(=O)c2cccc(F)c2)cc1 (stereo not shown) [1180-87]

I30 μM/Icontrol (mean ± SEM, %) GluN2D [1]: 74%
I30 μM/Icontrol (mean ± SEM, %) GluN2C [3]: 58%
I30 μM/Icontrol (mean ± SEM, %) GluN2B [4]: 95%
SMILES: CCOc1ccc(OC[C@H]2c3ccc(OC(C)C)cc3CCN2C(=S)c2cccc(F)c2)cc1 [(R)-(+)-1180-154]

GluN2D response % at 30 µM [1]: 101% at
GluN2C response % at 30 µM [3]: 127% at
EC50 ([4]; untitled tables after drawing 25 and drawing 36, read-out: EC50 (μM) GluN2B): 4.6 µM
SMILES: CC(C)Oc1ccc(OCC2c3ccc(OC(C)C)cc3CCN2C(=O)c2cccc(Cl)c2)cc1 (stereo not shown) [1180-264]

I30 μM/Icontrol (mean ± SEM, %) GluN2D [1]: 154%
EC50 ([1]; fitted when potentiation at 30 μM exceeded 120%, Tables 3, 5-7, read-out: EC50 (max.) (μM %) GluN2D: fitted EC50): 1.2 µM
GluN2D EC50 (μM)/Max %: Max % [1, 8]: 159%
EC50 (max.) (μM %) GluN2D: fitted maximum response [1, 9]: (153%)
I30 μM/Icontrol (mean ± SEM, %) GluN2C [3]: 166%
EC50 ([3]; fitted when potentiation at 30 μM exceeded 120%, Tables 3, 5-7, read-out: EC50 (max.) (μM %) GluN2C: fitted EC50): 1.4 µM
GluN2C EC50 (μM)/Max %: Max % [3, 8]: 191%
EC50 (max.) (μM %) GluN2C: fitted maximum response [3, 9]: (145%)
I30 μM/Icontrol (mean ± SEM, %) GluN2B [4]: 184%
EC50 ([4]; fitted when potentiation at 30 μM exceeded 120%, Tables 3, 5-7, read-out: EC50 (max.) (μM %) GluN2B: fitted EC50): 0.7 µM
GluN2B EC50 (μM)/Max %: Max % [4, 8]: 200%
EC50 (max.) (μM %) GluN2B: fitted maximum response [4, 9]: (190%)
SMILES: CCOc1ccc(OCC2c3ccc(OC(C)C)cc3CCN2C(=S)c2cccc(F)c2)cc1 (racemic) [1180-154]

I30 μM/Icontrol (mean ± SEM, %) GluN2D [1]: 102%
GluN2D potentiation at 3 μM ([1]; at 3 μM, footnote c of Table 7): exceeded 120%
I30 μM/Icontrol (mean ± SEM, %) GluN2C [3]: 114%
GluN2C potentiation at 3 μM ([3]; at 3 μM, footnote c of Table 7): exceeded 120%
I30 μM/Icontrol (mean ± SEM, %) GluN2B [4]: 153%
EC50 [5]: 0.94 µM
Emax [5, 7]: 163%
SMILES: CCOc1ccc(OC[C@@H]2c3ccc(OC(C)C)cc3CCN2C(=O)c2ccc(Cl)c(Cl)c2)cc1 [(S)-(−)-1180-103]

SMILES: COc1ccc(OC[C@H]2c3cc(OC)c(OC)cc3CCN2C(=O)c2cccc(Cl)c2)cc1 [R-1390]
EC50 & Max Effect: 2D (μM) [1]: Inactive
EC50 & Max Effect: 2C (μM) [3]: Inactive
